Where a name gives a salt, the structure may show the parent alone.
Columns and labels:
[1] = biological target: T1, HCV polymerase (NS5B) type 1b (Hepatitis C virus genotype 1b, UniProt P26663); assay: Assay of enzyme (HCV polymerase) inhibitory activity, type 1b enzyme; assay type: biochemical, HCV BK strain (type 1b); details: HCV polymerase inhibitory activity (IC50), 1b, type 1b enzyme 0.5 μg/ml, 25° C., 60 min
T1 construct: a region encoding NS5B (J Virol 1991 March, 65(3), 1105-13, 544 amino acids after deletion of 47 amino acids on the C-terminal); 6xHis (C); made in house; host or cells: Escherichia coli
Excerpt: (§1) The evaluation of the HCV polymerase inhibitory activity of the compound of the present invention is explained in the following. This polymerase is an enzyme coded for by the non-structural protein region called NS5B on the genome RNA of HCV.
(§2) i) Preparation of Enzyme (HCV Polymerase)
(§3) Using, as a template, a cDNA clone corresponding to the full length genome RNA of HCV BK strain (type 1b) obtained from the blood of a patient with hepatitis C, a region encoding NS5B (J Virol 1991 March, 65(3), 1105-13, 544 amino acids after deletion of 47 amino acids on the C-terminal) was amplified by PCR. The objective gene was prepared by adding a 6 His tag {base pair encoding 6 continuous histidine (His)} to the 3′ end thereof and transformed to Escherichia coli. The Escherichia coli capable of producing the objective protein was cultured. The obtained cells were suspended in a buffer solution and crushed in a microfluidizer. The supernatant was obtained by centrifugation and applied to various column chromatographys {mono-S, Sephacryl S-200 (Pharmacia)}, inclusive of metal chelate chromatography, to give a standard enzyme product.
(§4) ii) Synthesis of Substrate RNA
(§5) Using a synthetic primer designed based on the sequence of HCV genomic 3′ untranslated region, a DNA fragment (148 bp) containing polyU and 3′X sequence was entirely synthesized and cloned into plasmid pBluescript SK II(+) (Stratagene). The cDNA encoding full length NS5B, which was prepared in i) above, was digested with restriction enzyme KpnI to give a cDNA fragment containing the nucleotide sequence of from the restriction enzyme cleavage site to the termination codon. This cDNA fragment was inserted into the upstream of 3′ untranslated region of the DNA in pBluescript SK II(+) and ligated. The about 450 bp inserted DNA sequence was used as a template in the preparation of substrate RNA. This plasmid was cleaved immediately after the 3′X sequence, linearized and purified by phenol-chloroform treatment and ethanol precipitation to give DNA.
(§6) RNA was synthesized (37° C., 4 hr) by run-off method using this purified DNA as a template, a promoter of pBluescript SK II(+), MEGAscript RNA synthesis kit (Ambion) and T7 RNA polymerase. DNase I was added and the mixture was incubated for 1 hr. The template DNA was removed by decomposition to give a crude RNA product. This crude product was treated with phenol-chloroform and purified by ethanol precipitation to give the objective substrate RNA.
(§7) This RNA was applied to urea denaturation polyacrylamide gel electrophoresis to confirm the quality thereof and preserved at −80° C.
(§8) iii) Assay of Enzyme (HCV Polymerase) inhibitory activity
(§9) A test substance (compound of the present invention) and a reaction mixture (30 μl) having the following composition were reacted at 25° C. for 60 min.
(§10) 10% Trichloroacetic acid and 1% sodium pyrophosphate solution (150 μl) at 4° C. was added to this reaction mixture to stop the reaction. The reaction mixture was left standing at 4° C. for 15 min to insolubilize RNA. This RNA was trapped on a glass filter (PerkinElmer, GF/B) upon filtration by suction. This filter was washed with a solution containing 1% trichloroacetic acid and 0.1% sodium pyrophosphate, washed with 90% ethanol and dried. A liquid scintillation cocktail (PerkinElmer) was added and the radioactivity of RNA synthesized by the enzyme reaction was measured on a liquid scintillation counter.
The HCV polymerase inhibitory activity (IC50) of the compound of the present invention was calculated from the values of radioactivity of the enzyme reaction with and without the test substance.
Reaction mixture: HCV polymerase (type 1b 0.5 μg/ml or type 1a 1.5 μg/m) obtained in i), substrate RNA (5 μg/ml) obtained in ii), ATP (50 μM), GTP (50 μM), CTP (50 μM), UTP (2 μM), [5,6-^3H]UTP (30-60 Ci/mmol (Amersham Biosciences), 1 μCi) 20 mM Tris-HCl (pH 7.5), EDTA (1 mM), MgCl2 (5 mM), NaCl (50 mM), DTT (1 mM), BSA (0.01%)

[2] = biological target: T2, HCV polymerase (NS5B) type 1a (Hepatitis C virus genotype 1a, UniProt P26664); assay: Assay of enzyme (HCV polymerase) inhibitory activity, type 1a enzyme; assay type: biochemical, HCV type 1a (cloned from the blood of patients); details: HCV polymerase inhibitory activity (IC50), 1a, type 1a enzyme 1.5 μg/ml, 25° C., 60 min
T2 construct: made in house; host or cells: Escherichia coli (by the 'similar method' of the 1b enzyme)
Excerpt: as §1, §2, §3
Standard enzyme products for type 1a (cloned from the blood of patients) were also obtained by a similar method.
as §4, §5, §6, §7, §8, §9, §10
The HCV polymerase inhibitory activity (IC50) of the compound of the present invention was calculated from the values of radioactivity of the enzyme reaction with and without the test substance. […]

SMILES | IC50 [1] [nM] | IC50 [2] [nM]
CC(C)c1ccc(CNC(=O)[C@H]2CNCCN2S(=O)(=O)c2ccc(C(F)(F)F)cc2)cc1 [Example 1, (R)-1-(4-trifluoromethyl-benzenesulfonyl)-piperazine-2-carboxylic acid 4-isopropyl-benzylamide hydrochloride] | > 1000 | > 1000
CC(C)c1ccc(CNC(=O)[C@H]2CN(C(=O)Cc3ccncc3)CCN2S(=O)(=O)c2ccc(C(F)(F)F)cc2)cc1 [Example 2, (R)-4-(2-pyridin-4-yl-acetyl)-1-(4-trifluoromethyl-benzenesulfonyl)-piperazine-2-carboxylic acid 4-isopropyl-benzylamide] | 100 to 1000 | 100 to 1000
CC(C)c1ccc(CNC(=O)[C@H]2CN(C(=O)Nc3ccncc3)CCN2S(=O)(=O)c2ccc(C(F)(F)F)cc2)cc1 [Example 3, (R)-4-(4-trifluoromethyl-benzenesulfonyl)-piperazine-1,3-dicarboxylic acid 3-(4-isopropyl-benzylamide) 1-pyridin-4-ylamide] | < 100 | < 100
CC(C)c1ccc(CNC(=O)[C@H]2CN(C(N)=S)CCN2S(=O)(=O)c2ccc(C(F)(F)F)cc2)cc1 [Example 4, (R)-4-thiocarbamoyl-1-(4-trifluoromethyl-benzenesulfonyl)-piperazine-2-carboxylic acid 4-isopropyl-benzylamide] | 100 to 1000 | 100 to 1000
Cc1nc(N2CCN(S(=O)(=O)c3ccc(C(F)(F)F)cc3)[C@@H](C(=O)NCc3ccc(C(C)C)cc3)C2)sc1C(=O)OC(C)(C)C [Example 5, 2-[(R)-3-(4-isopropyl-benzylcarbamoyl)-4-(4-trifluoromethyl-benzenesulfonyl)-piperazin-1-yl]-4-methyl-thiazole-5-carboxylic acid tert-butyl ester] | > 1000 | > 1000
Cc1nc(N2CCN(S(=O)(=O)c3ccc(C(F)(F)F)cc3)[C@@H](C(=O)NCc3ccc(C(C)C)cc3)C2)sc1C(=O)O [Example 6, 2-[(R)-3-(4-isopropyl-benzylcarbamoyl)-4-(4-trifluoromethyl-benzenesulfonyl)-piperazin-1-yl]-4-methyl-thiazole-5-carboxylic acid] | < 100 | < 100
Cc1nc(N2CCN(S(=O)(=O)c3ccc(C(F)(F)F)cc3)[C@@H](C(=O)NCc3ccc(C(C)C)cc3)C2)sc1C(N)=O [Example 7, (R)-4-(5-carbamoyl-4-methyl-thiazol-2-yl)-1-(4-trifluoromethyl-benzenesulfonyl)-piperazine-2-carboxylic acid 4-isopropyl-benzylamide] | < 100 | < 100
COC(=O)c1cnc(N2CCN(S(=O)(=O)c3ccc(C(F)(F)F)cc3)[C@@H](C(=O)NCc3ccc(C(C)C)cc3)C2)cn1 [Example 8, (R)-3-(4-isopropyl-benzylcarbamoyl)-4-(4-trifluoromethyl-benzenesulfonyl)-3,4,5,6-tetrahydro-2H-[1,2′]bipyrazinyl-5′-carboxylic acid methyl ester] | < 100 | < 100
CC(C)c1ccc(CNC(=O)[C@H]2CN(c3cnc(C(=O)O)cn3)CCN2S(=O)(=O)c2ccc(C(F)(F)F)cc2)cc1 [Example 9, (R)-3-(4-isopropyl-benzylcarbamoyl)-4-(4-trifluoromethyl-benzenesulfonyl)-3,4,5,6-tetrahydro-2H-[1,2′]bipyrazinyl-5′-carboxylic acid] | < 100 | < 100
CC(=O)N1CCN(S(=O)(=O)c2ccc(OC(F)(F)F)c(I)c2)[C@@H](C(=O)NCc2ccc(C(C)C)cc2)C1 [Example 10, (R)-4-acetyl-1-(3-iodo-4-trifluoromethoxy-benzenesulfonyl)-piperazine-2-carboxylic acid 4-isopropyl-benzylamide] | < 100 | < 100
CC(=O)N1CCN(S(=O)(=O)c2ccc(OC(F)(F)F)c(CCCC(=O)O)c2)[C@@H](C(=O)NCc2ccc(C(C)C)cc2)C1 [Example 11, 4-{5-[(R)-4-acetyl-2-(4-isopropyl-benzylcarbamoyl)-piperazine-1-sulfonyl]-2-trifluoromethoxy-phenyl}-butyric acid] | < 100 | < 100
CCCc1ccc(CNC(=O)[C@H]2CN(C(C)=O)CCN2S(=O)(=O)c2ccc(C(C)C)cc2)c(C)c1 [Example 12, (R)-4-acetyl-1-(4-isopropyl-benzenesulfonyl)-piperazine-2-carboxylic acid 2-methyl-4-propyl-benzylamide] | < 100 | < 100
Cc1nc(N2CCN(S(=O)(=O)c3ccc(OC(F)(F)F)cc3)[C@@H](C(=O)NCc3ccc(C(C)C)nc3)C2)sc1C(=O)O [Example 13, 2-[(R)-3-[(6-isopropyl-pyridin-3-ylmethyl)-carbamoyl]-4-(4-trifluoromethoxy-benzenesulfonyl)-piperazin-1-yl]-4-methyl-thiazole-5-carboxylic acid] | < 100 | < 100
CCCc1ccc(CNC(=O)[C@H]2CN(c3nc(C)c(C(=O)O)s3)CCN2S(=O)(=O)c2ccc(OC(F)(F)F)cc2F)cc1 [Example 14, 2-[(R)-4-(2-fluoro-4-trifluoromethoxy-benzenesulfonyl)-3-(4-propyl-benzylcarbamoyl)-piperazin-1-yl]-4-methyl-thiazole-5-carboxylic acid] | < 100 | < 100
CC(C)c1ccc(S(=O)(=O)N2CCNCC2C(=O)NCc2ccc(C(F)(F)F)cc2)cc1 (centres unmarked) [Example 15, 1-(4-isopropyl-benzenesulfonyl)-piperazine-2-carboxylic acid 4-trifluoromethyl-benzylamide hydrochloride] | > 1000 | > 1000
CC(C)c1ccc(S(=O)(=O)N2CCN(C)CC2C(=O)NCc2ccc(C(F)(F)F)cc2)cc1 (centres unmarked) [Example 16, 1-(4-isopropyl-benzenesulfonyl)-4-methyl-piperazine-2-carboxylic acid 4-trifluoromethyl-benzylamide] | > 1000 | > 1000
CC(C)c1ccc(S(=O)(=O)N2CCN(S(C)(=O)=O)CC2C(=O)NCc2ccc(C(F)(F)F)cc2)cc1 (centres unmarked) [Example 17, 1-(4-isopropyl-benzenesulfonyl)-4-methanesulfonyl-piperazine-2-carboxylic acid 4-trifluoromethyl-benzylamide] | > 1000 | > 1000
CC(=O)N1CCN(S(=O)(=O)c2ccc(C(C)C)cc2)[C@@H](C(=O)NCc2ccc(C(F)(F)F)cc2)C1 [Example 18, (R)-4-acetyl-1-(4-isopropyl-benzenesulfonyl)-piperazine-2-carboxylic acid 4-trifluoromethyl-benzylamide] | 100 to 1000 | 100 to 1000
CC(=O)N1CCN(S(=O)(=O)c2ccc(C(C)C)cc2)[C@H](C(=O)NCc2ccc(C(F)(F)F)cc2)C1 [Example 19, (S)-4-acetyl-1-(4-isopropyl-benzenesulfonyl)-piperazine-2-carboxylic acid 4-trifluoromethyl-benzylamide] | > 1000 | > 1000

— US8017612B2, “Piperazine compound and use thereof as a HCV polymerase inhibitor” (priority 2006, dated 2011)
